Experimental data published in patent US20260014146A1, “CDK2 INHIBITORS AND METHODS OF USING THE SAME” (Cedilla Therapeutics, Inc., priority 2022, published 2026).

How the values were obtained:
CDK2/Cyclin E1 = CDK2/Cyclin E1 (Homo sapiens (Human), UniProt P24941); assay: Caliper LabChip EZ Reader mobility shift assay; assay type: biochemical; details: 2.5 nM CDK2/Cyclin E1 (14-475), 100 μM ATP, 1.5 μM fluorescent peptide; read-out: Caliper Assay (CDK2/CCNE1): IC50
Protocol: Inhibition of CDK2/Cyclin E1 activity in the presence of compounds of the present disclosure was evaluated using a Caliper LabChip® EZ Reader mobility shift assay. In the assay, activated CDK2/Cyclin E1 catalyzes the phosphorylation of a fluorescently tagged peptide 5-FAM-QSPKKG-CONH2 (PerkinElmer, FL Peptide 18) which induces a difference in capillary electrophoresis mobility. The peptide substrate and product were measured, and the conversion ratio was used to determine the inhibition (as % activity and IC50 values) of CDK2/Cyclin E1. Reactions contained 50 mM HEPES pH 7.5, 10 mM MgCl2, 1 mM EDTA, 2 mM DTT, 0.01% Brij35, 0.5 mg/mL BSA, 0.1% DMSO, 2.5 nM CDK2/Cyclin E1 (14-475), 100 μM ATP, and 1.5 μM fluorescent peptide substrate.
Dose titrations of inhibitors in 100% DMSO were combined with 3.25 nM CDK2/Cyclin E1 (14-475) and 130 μM of ATP in reaction buffer. The mixtures were incubated for 30 minutes before the addition of fluorescent peptide substrate to initiate the kinase reaction. The final conditions were 2.5 nM CDK2/Cyclin E1 (14-475), 100 μM ATP, and 1.5 μM fluorescent peptide. The reactions were stopped after 100 minutes with the addition of EDTA (6 mM final EDTA concentration). The stopped reactions were analyzed on a Caliper LabChip® EZ Reader II. The conversion ratios were normalized to yield % activity, plotted against compound concentration, and fit to a four-parameter equation to determine the IC50 for each compound.

[1] = tested on: Kuramochi cells labeled with mApple-H2B; assay: IncuCyte cell proliferation assay; assay type: cell-based; details: Kuramochi RB-WT, cell count 0 to 72 hours; method calls it GI50
Protocol: IncuCyte® assay was used to measure the effect of disclosed compounds on cell proliferation. Fluorescent microscopy images of cells were taken immediately after compound treatment and 72 hours later. Image analysis software was used to obtain cell counts as a function of compound concentration. Kuramochi cells labeled with mApple-H2B were seeded on 384-well assay-ready plates. Plates were placed in an IncuCyte® (Sartorius) and scanned at 0 and 72 hours. IncuCyte® software was used to count the number of fluorescent nuclei in each well. The fold change in cell count from 0 to 72 hours in wells treated with increasing compounds concentrations (10 pts, 1/2 log dilution, 20 μM top concentration) was normalized to DMSO control wells. The normalized cell counts were fit with dose response curves and a GI50 was calculated.

Row | SMILES | IC50 (CDK2/Cyclin E1) | IC50 [1]
1 | COC[C@H]1CCCN(C(=O)[C@@H](NC(=O)[C@@H]2CN(c3n[nH]c4ncccc34)CC23CN(C(=O)[C@H]2CC2(C)C)C3)[C@@H](C)OCC23CCC(CC2)OC3)C1 [Compound I-24, (S)-N-((2S,3R)-3-(2-oxabicyclo[2.2.2]octan-4-ylmethoxy)-1-((S)-3-(methoxymethyl)piperidin-1-yl)-1-oxobutan-2-yl)-2-((S)-2,2-dimethylcyclopropanecarbonyl)-6-(1H-pyrazolo[3,4-b]pyridin-3-yl)-2,6-diazaspiro[3.4]octane-8-carboxamide] | > 10 µM | –
2 | C[C@@H](OCC12CCC(CC1)OC2)[C@H](NC(=O)[C@@H]1CN(C(=O)c2cncs2)CC12CN(c1cc[nH]n1)C2)C(C)(C)O [Compound I-31, (S)-N-((3S,4R)-4-(2-oxabicyclo[2.2.2]octan-4-ylmethoxy)-2-hydroxy-2-methylpentan-3-yl)-2-(1H-pyrazol-3-yl)-6-(thiazole-5-carbonyl)-2,6-diazaspiro[3.4]octane-8-carboxamide] | > 10 µM | –
3 | C[C@@H](OCC1CCCCC1)[C@H](NC(=O)[C@@H]1CN(c2nccc3ncsc23)CC12CN(C(=O)[C@H]1CC1(C)C)C2)C(=O)N1CCCCC1 [Compound I-15, (S)-N-((2S,3R)-3-(cyclohexylmethoxy)-1-oxo-1-(piperidin-1-yl)butan-2-yl)-2-((S)-2,2-dimethylcyclopropanecarbonyl)-6-(thiazolo[5,4-c]pyridin-4-yl)-2,6-diazaspiro[3.4]octane-8-carboxamide] | 0.1 to 1 µM | 5 to 20 µM
4 | C[C@@H](OCC12CCC(CC1)OC2)[C@H](NC(=O)[C@@H]1CN(c2ncnc3ncsc23)CC12CN(C(=O)[C@H]1CC1(C)C)C2)C(=O)N1CCC(OC(F)(F)F)CC1 [Compound I-29, (S)-N-((2S,3R)-3-((2-oxabicyclo[2.2.2]octan-4-yl)methoxy)-1-oxo-1-(4-(trifluoromethoxy)piperidin-1-yl)butan-2-yl)-2-((S)-2,2-dimethylcyclopropane-1-carbonyl)-6-(thiazolo[4,5-d]pyrimidin-7-yl)-2,6-diazaspiro[3.4]octane-8-carboxamide] | 0.01 to 0.1 µM | 5 to 20 µM
5 | C[C@@H](OCC12CCC(CC1)OC2)[C@H](NC(=O)[C@@H]1CN(c2cc(F)cc3ncsc23)CC12CN(C(=O)[C@H]1CC1(C)C)C2)C(=O)N1CCC(c2ccncc2)CC1 [Compound I-33, N-((2S,3R)-3-(2-oxabicyclo[2.2.2]octan-4-ylmethoxy)-1-oxo-1-(4-(pyridin-4-yl)piperidin-1-yl)butan-2-yl)-2-((S)-2,2-dimethylcyclopropanecarbonyl)-6-(5-fluorobenzo[d]thiazol-7-yl)-2,6-diazaspiro[3.4]octane-8-carboxamide] | ≤ 0.01 µM | 0.5 to 5 µM
6 | COC[C@H]1CCCN(C(=O)[C@@H](NC(=O)[C@@H]2CN(c3cc(C(F)(F)F)cc4ncsc34)CC23CN(C(=O)[C@H]2CC2(C)C)C3)[C@@H](C)OCC23CCC(CC2)OC3)C1 [Compound I-21, (S)-N-((2S,3R)-3-(2-oxabicyclo[2.2.2]octan-4-ylmethoxy)-1-((S)-3-(methoxymethyl)piperidin-1-yl)-1-oxobutan-2-yl)-2-((S)-2,2-dimethylcyclopropanecarbonyl)-6-(5-(trifluoromethyl)benzo[d]thiazol-7-yl)-2,6-diazaspiro[3.4]octane-8-carboxamide] | > 10 µM | 5 to 20 µM
7 | COC[C@H]1CCCN(C(=O)[C@@H](NC(=O)[C@H]2CN(c3nc(C(F)(F)F)cs3)CC23CN(C(=O)[C@H]2CC2(C)C)C3)[C@@H](C)OCC23CCC(CC2)OC3)C1 [I-17 2nd, N-((2S,3R)-3-(2-oxabicyclo[2.2.2]octan-4-ylmethoxy)-1-((S)-3-(methoxymethyl)piperidin-1-yl)-1-oxobutan-2-yl)-2-((S)-2,2-dimethylcyclopropanecarbonyl)-6-(4-(trifluoromethyl)thiazol-2-yl)-2,6-diazaspiro[3.4]octane-8-carboxamide] | > 10 µM | > 20 µM
8 | C[C@@H](OCC1CCCCC1)[C@H](NC(=O)[C@@H]1CN(c2cccc3[nH]ncc23)CC12CN(C(=O)[C@H]1CC1(C)C)C2)C(=O)N1CCCCC1 [Compound I-13, (S)-N-((2S,3R)-3-(cyclohexylmethoxy)-1-oxo-1-(piperidin-1-yl)butan-2-yl)-2-((S)-2,2-dimethylcyclopropanecarbonyl)-6-(1H-indazol-4-yl)-2,6-diazaspiro[3.4]octane-8-carboxamide] | 1 to 10 µM | 5 to 20 µM
9 | CNC(=O)C(NC(=O)[C@@H]1CN(C(=O)c2cncs2)CC12CN(c1nc(C(F)(F)F)co1)C2)[C@@H](C)OCC12CCC(CC1)OC2 (stereo partly drawn) [Compound I-32, (S)-N-((2S,3R)-3-((2-oxabicyclo[2.2.2]octan-4-yl)methoxy)-1-(methylamino)-1-oxobutan-2-yl)-6-(thiazole-5-carbonyl)-2-(4-(trifluoromethyl)oxazol-2-yl)-2,6-diazaspiro[3.4]octane-8-carboxamide] | > 10 µM | > 20 µM
10 | CC(OCC12CCC(CC1)OC2)[C@H](NC(=O)[C@@H]1CN(c2ncnc3ncsc23)CC12CN(C(=O)[C@H]1CC1(C)C)C2)C(=O)N1CC2(CCOCC2)C1 (stereo partly drawn) [Compound I-25, (S)-N-((2S,3R)-3-((2-oxabicyclo[2.2.2]octan-4-yl)methoxy)-1-oxo-1-(7-oxa-2-azaspiro[3.5]nonan-2-yl)butan-2-yl)-2-((S)-2,2-dimethylcyclopropane-1-carbonyl)-6-(thiazolo[4,5-d]pyrimidin-7-yl)-2,6-diazaspiro[3.4]octane-8-carboxamide] | 0.1 to 1 µM | > 20 µM
11 | C[C@@H](OCC12CCC(CC1)OC2)C(NC(=O)[C@@H]1CN(c2cccc3ncsc23)CC12CN(C(=O)[C@H]1CC1(C)C)C2)C(C)(C)O (stereo partly drawn) [Compound I-16, (S)-N-((3S,4R)-4-((2-oxabicyclo[2.2.2]octan-4-yl)methoxy)-2-hydroxy-2-methylpentan-3-yl)-6-(benzo[d]thiazol-7-yl)-2-((S)-2,2-dimethylcyclopropane-1-carbonyl)-2,6-diazaspiro[3.4]octane-8-carboxamide] | > 10 µM | –

More lines, main results first:

Row | IC50 (CDK2/Cyclin E1) | SMILES | IC50 [1]
12 | > 10 µM | C[C@@H](OCC1CCC(F)(F)CC1)[C@H](NC(=O)[C@@H]1CN(C(=O)c2cncs2)CC12CN(c1cc[nH]n1)C2)C(C)(C)O [Compound I-6, (S)-N-((3S,4R)-4-((4,4-difluorocyclohexyl)methoxy)-2-hydroxy-2-methylpentan-3-yl)-2-(1H-pyrazol-3-yl)-6-(thiazole-5-carbonyl)-2,6-diazaspiro[3.4]octane-8-carboxamide] | > 20 µM
13 | 1 to 10 µM | C[C@@H](OCC12CCC(CC1)OC2)[C@H](NC(=O)[C@@H]1CN(c2nccc3ncsc23)CC12CN(C(=O)[C@H]1CC1(C)C)C2)C(=O)N(C)C [Compound I-23, (S)-N-((2S,3R)-3-(2-oxabicyclo[2.2.2]octan-4-ylmethoxy)-1-(dimethylamino)-1-oxobutan-2-yl)-2-((S)-2,2-dimethylcyclopropanecarbonyl)-6-(thiazolo[5,4-c]pyridin-4-yl)-2,6-diazaspiro[3.4]octane-8-carboxamide] | > 20 µM
14 | 1 to 10 µM | C[C@@H](OCC12CCC(CC1)OC2)[C@H](NC(=O)[C@@H]1CN(c2nccc3ncsc23)CC12CN(C(=O)[C@H]1CC1(C)C)C2)C(=O)N1CCC2(CC1)COC2 [Compound I-19, (S)-N-((2S,3R)-3-(2-oxabicyclo[2.2.2]octan-4-ylmethoxy)-1-oxo-1-(2-oxa-7-azaspiro[3.5]nonan-7-yl)butan-2-yl)-2-((S)-2,2-dimethylcyclopropanecarbonyl)-6-(thiazolo[5,4-c]pyridin-4-yl)-2,6-diazaspiro[3.4]octane-8-carboxamide] | > 20 µM
15 | > 10 µM | CC(C)(O)C(NC(=O)[C@@H]1CN(C(=O)c2cncs2)CC12CN(c1ncco1)C2)c1cccc(C2CCOCC2)n1 (stereo partly drawn) [Compound I-5, (8S)—N-(2-hydroxy-2-methyl-1-(6-(tetrahydro-2H-pyran-4-yl) 239yridine-2-yl)propyl)-2-(oxazol-2-yl)-6-(thiazole-5-carbonyl)-2,6-diazaspiro[3.4]octane-8-carboxamide] | > 20 µM
16 | 1 to 10 µM | C[C@@H](OCC12CCC(CC1)OC2)[C@H](NC(=O)[C@@H]1CN(c2cccc3ncsc23)CC12CN(C(=O)[C@H]1CC1(C)C)C2)C(=O)N(C)C [Compound I-22, (S)-N-((2S,3R)-3-(2-oxabicyclo[2.2.2]octan-4-ylmethoxy)-1-(dimethylamino)-1-oxobutan-2-yl)-6-(benzo[d]thiazol-7-yl)-2-((S)-2,2-dimethylcyclopropanecarbonyl)-2,6-diazaspiro[3.4]octane-8-carboxamide] | > 20 µM
